From patent US9957254B2, “Cyclohexen-1-yl-pyridin-2-yl-1h-pyrazole-4-carboxylic acid derivatives and the use thereof as soluble guanylate cyclase activators” (Novartis AG, priority 2014, dated 2018) come the findings set out here.

Structures are written as SMILES.

T1 sequence (Q02108 whole entry partner): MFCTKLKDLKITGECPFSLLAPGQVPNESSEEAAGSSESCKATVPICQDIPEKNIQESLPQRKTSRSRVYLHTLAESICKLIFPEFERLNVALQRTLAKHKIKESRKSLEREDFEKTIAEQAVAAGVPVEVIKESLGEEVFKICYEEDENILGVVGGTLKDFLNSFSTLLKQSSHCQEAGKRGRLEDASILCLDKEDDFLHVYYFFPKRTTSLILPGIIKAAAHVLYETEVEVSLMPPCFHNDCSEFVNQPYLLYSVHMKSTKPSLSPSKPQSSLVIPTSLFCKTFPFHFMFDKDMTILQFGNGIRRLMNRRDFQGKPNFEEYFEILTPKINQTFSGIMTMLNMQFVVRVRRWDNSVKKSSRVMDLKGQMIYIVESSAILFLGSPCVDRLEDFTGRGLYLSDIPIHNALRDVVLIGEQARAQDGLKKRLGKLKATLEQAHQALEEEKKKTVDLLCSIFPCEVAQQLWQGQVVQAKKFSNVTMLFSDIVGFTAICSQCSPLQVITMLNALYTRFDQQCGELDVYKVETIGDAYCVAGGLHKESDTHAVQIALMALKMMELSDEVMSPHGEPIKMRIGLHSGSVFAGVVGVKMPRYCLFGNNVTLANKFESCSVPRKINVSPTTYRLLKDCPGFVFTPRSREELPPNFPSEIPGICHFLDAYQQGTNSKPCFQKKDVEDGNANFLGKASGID
T1 sequence (Q02153 whole entry): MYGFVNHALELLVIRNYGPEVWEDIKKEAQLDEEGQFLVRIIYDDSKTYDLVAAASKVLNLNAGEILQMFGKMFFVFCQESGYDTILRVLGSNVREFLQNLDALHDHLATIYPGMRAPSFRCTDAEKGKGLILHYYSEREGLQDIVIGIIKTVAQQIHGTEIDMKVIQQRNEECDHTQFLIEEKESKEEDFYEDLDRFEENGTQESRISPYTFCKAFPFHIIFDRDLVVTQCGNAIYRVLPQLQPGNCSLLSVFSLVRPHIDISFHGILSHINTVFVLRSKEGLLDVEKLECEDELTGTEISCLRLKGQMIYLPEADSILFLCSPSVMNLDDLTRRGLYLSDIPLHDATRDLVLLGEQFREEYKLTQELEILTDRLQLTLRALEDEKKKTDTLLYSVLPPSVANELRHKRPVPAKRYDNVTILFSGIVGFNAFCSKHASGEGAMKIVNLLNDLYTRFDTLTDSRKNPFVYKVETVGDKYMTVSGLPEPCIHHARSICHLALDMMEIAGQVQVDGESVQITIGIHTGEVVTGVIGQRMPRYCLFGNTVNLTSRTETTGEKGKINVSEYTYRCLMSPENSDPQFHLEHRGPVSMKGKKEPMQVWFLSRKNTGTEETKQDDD

The experiment concerns the target T1, soluble guanylate cyclase (Homo sapiens, UniProt Q02153).
T1 construct: expressed in transfected cells
The experiment is described as follows: CHO cellular assay (cGMP production, Cisbio cGMP HTRF). To be noted: CHO K1 cells overexpressing human GUCYA3/GUCYB3 (clone 8E10), 1 mM IBMX, 20 uM ODQ, 1 h room temperature, listed 0.5 nM means actual EC50 ≤0.5 nM (quantification limit). The format is cell-based. From the text:
Chinese hamster ovary (CHO) cells overexpressing soluble guanylate cyclase were generated to test the effect of sGC activators in a cellular context. Human cDNAs for GUCYA3 (RefSeq: NM_000856.3) and GUCYB3 (RefSeq: NM_000857.1) were amplified by PCR from a HUVEC (Human Umbilical Vein Endothelial Cells) cDNA library and cloned into mammalian expression vectors. CHO K1 cells (ATCC CCL-61) were transfected using Lipofectamine 2000 following manufacturer's instructions and stably expressing clones were identified by antibiotic selection. CHO GUCY clone 8E10 was used for subsequent experiments.
Cells were seeded at a density of 3000 cells/well in white 384-well proxyplates (Perkin Elmer) and incubated overnight, then the medium was removed and cells were washed with assay buffer (HBSS, 0.1% BSA, 1 mM IBMX, 20 uM ODQ). sGC activators were serially diluted in DMSO, then diluted in assay buffer prior to adding to cells (10 ul/well, final DMSO concentration 0.5%). Cells were incubated with compounds for 1 h room temperature, then assayed for cGMP production using Cisbio cGMP HTRF kit (62GM2PEC) according to manufacturer's instructions.
The EC50s are calculated based on the amount of cGMP interpolated from the standard curve, using a 4-parameter sigmoidal dose-response.
Compounds of invention are active on sGC activation. Data on Table 1 collected using the assay of Biological Example 1. The minimum EC50 quantification limit of the assay is 0.5 nM, therefore any compound listed as having an EC50 value of 0.5 nM has a actual EC50 of ≤0.5 nM.
As usually defined, the EC50 is the concentration at which the effect is half-maximal. Regarding `COC(=O)N1CCC(c2ccc(OCC3=C(c4cccc(-n5ncc(C(=O)O)c5C(F)(F)F)n4)CCC3)c(C)c2)CC1` [Example 24-3, 1-(6-(2-((4-(1-(Methoxycarbonyl)piperidin-4-yl)-2-methylphenoxy)methyl)cyclopent-1-en-1-yl)pyridin-2-yl)-5-(trifluoromethyl)-1H-pyrazole-4-carboxylic acid], the EC50 worked out at 22 nM.

For the compound `Cc1cc(C2CCN(C(=O)C3CC3)CC2)ccc1OCC1=C(c2cccc(-n3ncc(C(=O)O)c3C(F)(F)F)c2)CCCC1` [Example 10, 1-(6′-((4-(1-(Cyclopropanecarbonyl)piperidin-4-yl)-2-methylphenoxy)methyl)-2′,3′,4′,5′-tetrahydro-[1,1-biphenyl]-3-yl)-5-(trifluoromethyl)-1H-pyrazole-4-carboxylic acid], it took 1 nM to reach a half-maximal effect (EC50).

Consider `CCc1c(C(=O)O)cnn1-c1cccc(C2=C(COc3ccc(C4CCN(C(=O)C5CC5)CC4)cc3C)CCCC2)n1` [Example 9, 1-(6-(2-((4-(1-(Cyclopropanecarbonyl)piperidin-4-yl)-2-methylphenoxy)methyl)cyclohex-1-en-1-yl)pyridin-2-yl)-5-ethyl-1H-pyrazole-4-carboxylic acid], for which the EC50 is not above 0.5 nM.

For the compound `Cc1cc(C2CCN(C(=O)C3CC3)CC2)ccc1NCC1=C(c2cccc(-n3ncc(C(=O)O)c3C(F)(F)F)n2)CCCC1` [Example 27-1, 1-(6-(2-(((4-(1-(Cyclopropanecarbonyl)piperidin-4-yl)-2-methylphenyl)amino)methyl)cyclohex-1-en-1-yl)pyridin-2-yl)-5-(trifluoromethyl)-1H-pyrazole-4-carboxylic acid], the response was half-maximal at 2.4 nM (EC50).

Regarding `CCc1cc(OCC2=C(c3cccc(-n4ncc(C(=O)O)c4C)n3)CCCC2C)ccc1C1CCN(C(=O)[C@H](C)O)CC1` (single isomer, unassigned; diastereomer-2) [Example 19b], the EC50 was determined as 8 nM.

Compound `Cc1cc(C2CCN(C(=O)C3CC3)CC2)ccc1OCC1=C(c2cccc(-n3ncc(C(=O)O)c3C(F)(F)F)n2)CCCC1C` (single isomer, unassigned; (+)) [Example 15a, (+)-1-(6-(2-((4-(1-(cyclopropanecarbonyl)piperidin-4-yl)-2-methylphenoxy)methyl)-3-methylcyclohex-1-en-1-yl)pyridin-2-yl)-5-(trifluoromethyl)-1H-pyrazole-4-carboxylic acid] gave an EC50 not above 0.5 nM.

For `Cc1cc(C2CCN(C(=O)c3ccccn3)CC2)ccc1OCC1=C(c2cccc(-n3ncc(C(=O)O)c3C(F)(F)F)n2)CCCC1` [Example 4-2, 1-(6-(2-((2-methyl-4-(1-picolinoylpiperidin-4-yl)phenoxy)methyl)cyclohex-1-en-1-yl)pyridin-2-yl)-5-(trifluoromethyl)-1H-pyrazole-4-carboxylic acid], the EC50 is 8.4 nM.

As for `Cc1cc(C2CCN(C(=O)C3CC3)CC2)ccc1OCC1=C(c2cccc(-n3ncc(C(=O)O)c3C(F)(F)F)n2)CC(C)CC1` (single isomer, unassigned; (-)) [Example 12 (−), (−)-1-(6-(2-((4-(1-(cyclopropanecarbonyl)piperidin-4-yl)-2-methylphenoxy)methyl)-5-methylcyclohex-1-en-1-yl)pyridin-2-yl)-5-(trifluoromethyl)-1H-pyrazole-4-carboxylic acid], the EC50 is not above 0.5 nM.

On to `CCc1cc(OCC2=C(c3cccc(-n4ncc(C(=O)O)c4C(F)(F)F)n3)CCCC2C)ccc1C1CCN(C(=O)C2CC2)CC1` (single isomer, unassigned; (+)) [Example 13a, (+)-1-(6-(2-((4-(1-(Cyclopropanecarbonyl)piperidin-4-yl)-3-ethylphenoxy)methyl)-3-methylcyclohex-1-en-1-yl)pyridin-2-yl)-5-(trifluoromethyl)-1H-pyrazole-4-carboxylic acid], for which a half-maximal effect (EC50) was put at 1 nM.

In turn, `CCc1cc(OCC2=C(c3cccc(-n4ncc(C(=O)O)c4C(F)(F)F)n3)CCCC2)ccc1C1CCN(C(=O)C2CC2)CC1` [Example 7, 1-(6-(2-((4-(1-(Cyclopropanecarbonyl)piperidin-4-yl)-3-ethylphenoxy)methyl)cyclohex-1-en-1-yl)pyridin-2-yl)-5-(trifluoromethyl)-1H-pyrazole-4-carboxylic acid] showed an EC50 of 1 nM.

As for `CCc1cc(OCC2=C(c3cccc(-n4ncc(C(=O)O)c4C)n3)CCCC2C)ccc1C1CCN(C(=O)[C@H](C)O)CC1` (single isomer, unassigned; diastereomer-1) [Example 19a], the 50% effective concentration (EC50) is not above 0.5 nM.

For the compound `Cc1cc(C2CCN(C(=O)C3CC3)CC2)ccc1OCC1=C(c2cccc(-n3ncc(C(=O)O)c3C(F)(F)F)n2)CCCC1C` (single isomer, unassigned; (-)) [Example 15b, (−)-1-(6-(2-((4-(1-(Cyclopropanecarbonyl)piperidin-4-yl)-2-methylphenoxy)methyl)-3-methylcyclohex-1-en-1-yl)pyridin-2-yl)-5-(trifluoromethyl)-1H-pyrazole-4-carboxylic acid], it took 1 nM to reach a half-maximal effect (EC50).

With `O=C(O)c1cnn(-c2cccc(C3=C(COc4ccc5c(c4)CCN(Cc4ccccn4)C5)CCCC3)n2)c1C(F)(F)F` [Example 8-2, 1-(6-(2-(((2-(pyridin-2-ylmethyl)-1,2,3,4-tetrahydroisoquinolin-6-yl)oxy)methyl)cyclohex-1-en-1-yl)pyridin-2-yl)-5-(trifluoromethyl)-1H-pyrazole-4-carboxylic acid], the EC50 amounted to 34 nM.

`Cc1cc(C2CCN(CC3CC3)CC2)ccc1OCC1=C(c2cccc(-n3ncc(C(=O)O)c3C(F)(F)F)n2)CCCC1` [Example 6-3, 1-(6-(2-((4-(1-(Cyclopropylmethyl)piperidin-4-yl)-2-methylphenoxy)methyl)cyclohex-1-en-1-yl)pyridin-2-yl)-5-(trifluoromethyl)-1H-pyrazole-4-carboxylic acid]: the EC50 was 374 nM.

Consider `Cc1cc(C2CCN(C(=O)C3CC3)CC2)ccc1OCC1=C(c2cccc(-n3ncc(C(=O)O)c3C(F)(F)F)n2)CC(C)CC1` (single isomer, unassigned; (+)) [Example 12 (+), (+)-1-(6-(2-((4-(1-(cyclopropanecarbonyl)piperidin-4-yl)-2-methylphenoxy)methyl)-5-methylcyclohex-1-en-1-yl)pyridin-2-yl)-5-(trifluoromethyl)-1H-pyrazole-4-carboxylic acid], for which the EC50 is not above 0.5 nM.

For the compound `O=C(O)c1cnn(-c2cccc(C3=C(COc4ccc(C5CCN(C(=O)C6CC6)CC5)cc4)CCCC3)n2)c1C(F)(F)F` [Example 2-6, 1-(6-(2-((4-(1-(cyclopropanecarbonyl)piperidin-4-yl)phenoxy)methyl)cyclohex-1-en-1-yl)pyridin-2-yl)-5-(trifluoromethyl)-1H-pyrazole-4-carboxylic acid], it took 6.3 nM to reach a half-maximal effect (EC50).

`Cc1cc(C2CCN(C(=O)[C@@H](C)O)CC2)ccc1OCC1=C(c2cccc(-n3ncc(C(=O)O)c3C(F)(F)F)n2)CCCC1` [Example 4-1, (R)-1-(6-(2-((4-(1-(2-hydroxypropanoyl)piperidin-4-yl)-2-methylphenoxy)methyl)cyclohex-1-en-1-yl)pyridin-2-yl)-5-(trifluoromethyl)-1H-pyrazole-4-carboxylic acid] yielded an EC50 of 164 nM.
